Assay results from PubChem BioAssay (NCI).
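These data come from cells grown in 96-well plates and exposed to compound for 48 hours at five concentrations. GI50 is the concentration that inhibits growth by half. TGI is the concentration that stops growth completely.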

Columns and labels:
Assay in all cases: NCI-60 cell line screen, 48 h
RXF 393 renal = system: RXF 393 renal
KM12 colon = system: KM12 colon
A498 renal = system: A498 renal
SF-539 CNS = system: SF-539 CNS
U251 CNS = system: U251 CNS
RPMI-8226 leukemia = system: RPMI-8226 leukemia
OVCAR-8 ovarian = system: OVCAR-8 ovarian
NCI-H23 lung = system: NCI-H23 lung
SF-295 CNS = system: SF-295 CNS
HCC-2998 colon = system: HCC-2998 colon
DU-145 prostate = system: DU-145 prostate
HS 578T breast = system: HS 578T breast
LOX IMVI melanoma = system: LOX IMVI melanoma
MCF7 breast = system: MCF7 breast
CAKI-1 renal = system: CAKI-1 renal
UACC-257 melanoma = system: UACC-257 melanoma
SK-OV-3 ovarian = system: SK-OV-3 ovarian
SK-MEL-28 melanoma = system: SK-MEL-28 melanoma
OVCAR-5 ovarian = system: OVCAR-5 ovarian
HOP-62 NSCLC = system: HOP-62 NSCLC
SK-MEL-2 melanoma = system: SK-MEL-2 melanoma
ACHN renal = system: ACHN renal
A549 NSCLC = system: A549 NSCLC
HL-60(TB) leukemia = system: HL-60(TB) leukemia
MOLT-4 leukemia = system: MOLT-4 leukemia
SW-620 colon = system: SW-620 colon
COLO 205 colon = system: COLO 205 colon
NCI/ADR-RES ovarian = system: NCI/ADR-RES ovarian
SK-MEL-5 melanoma = system: SK-MEL-5 melanoma
SN12C renal = system: SN12C renal
MDA-MB-435 = system: MDA-MB-435
SNB-75 CNS = system: SNB-75 CNS
BT-549 breast = system: BT-549 breast
UO-31 renal = system: UO-31 renal
T-47D breast = system: T-47D breast
MDA-MB-231 breast = system: MDA-MB-231 breast
K-562 leukemia = system: K-562 leukemia
M14 melanoma = system: M14 melanoma
TK-10 renal = system: TK-10 renal
OVCAR-3 ovarian = system: OVCAR-3 ovarian
HCT-116 colon = system: HCT-116 colon
NCI-H522 lung = system: NCI-H522 lung
PC-3 prostate = system: PC-3 prostate
NCI-H226 lung = system: NCI-H226 lung
HOP-92 NSCLC = system: HOP-92 NSCLC
UACC-62 melanoma = system: UACC-62 melanoma
IGROV1 ovarian = system: IGROV1 ovarian
SR leukemia = system: SR leukemia
HT29 colon = system: HT29 colon
NCI-H460 lung = system: NCI-H460 lung
HCT-15 colon = system: HCT-15 colon
SF-268 CNS = system: SF-268 CNS
SNB-19 CNS = system: SNB-19 CNS
786-0 renal = system: 786-0 renal
CCRF-CEM leukemia = system: CCRF-CEM leukemia
OVCAR-4 ovarian = system: OVCAR-4 ovarian
MALME-3M melanoma = system: MALME-3M melanoma

CC(C)N(Cc1c(F)cccc1F)c1ccc(CO)c(Cl)c1 gave a GI50 (RXF 393 renal) of 1.63 µM, a TGI (RXF 393 renal) of 20.6 µM and a GI50 (KM12 colon) of 15.8 µM. It also gave a TGI (KM12 colon) of 33.1 µM, a GI50 (A498 renal) of 0.0488 µM and a TGI (A498 renal) of 0.148 µM. It also gave a GI50 (SF-539 CNS) of 16.8 µM, a TGI (SF-539 CNS) of 31.8 µM and a GI50 (U251 CNS) of 0.228 µM. The TGI (U251 CNS) was 17.3 µM, the GI50 (RPMI-8226 leukemia) was 0.529 µM and the TGI (RPMI-8226 leukemia) was 27.5 µM. It also gave a GI50 (OVCAR-8 ovarian) of 6.65 µM, a TGI (OVCAR-8 ovarian) of 24.7 µM and a GI50 (NCI-H23 lung) of 14 µM. For the same compound, the TGI (NCI-H23 lung) was 32.4 µM, the GI50 (SF-295 CNS) was 0.157 µM and the TGI (SF-295 CNS) was 2.53 µM. It also gave a GI50 (HCC-2998 colon) of 2.06 µM, a TGI (HCC-2998 colon) of 13.8 µM and a GI50 (DU-145 prostate) of 12.2 µM. For the same compound, the TGI (DU-145 prostate) was 27.3 µM, the GI50 (HS 578T breast) was 17.7 µM and the TGI (HS 578T breast) was 40.8 µM. It also gave a GI50 (LOX IMVI melanoma) of 18.5 µM, a TGI (LOX IMVI melanoma) of 34.7 µM and a GI50 (MCF7 breast) of 0.0655 µM. It also gave a TGI (MCF7 breast) of 13.6 µM, a GI50 (CAKI-1 renal) of 1.25 µM and a TGI (CAKI-1 renal) of 15 µM. It also gave a GI50 (UACC-257 melanoma) of 0.0582 µM, a TGI (UACC-257 melanoma) of 0.195 µM and a GI50 (SK-OV-3 ovarian) of 2.64 µM. For the same compound, the TGI (SK-OV-3 ovarian) was 12.9 µM, the GI50 (SK-MEL-28 melanoma) was 13 µM and the TGI (SK-MEL-28 melanoma) was 26.6 µM. It also gave a GI50 (OVCAR-5 ovarian) of 0.0702 µM, a TGI (OVCAR-5 ovarian) of 0.253 µM and a GI50 (HOP-62 NSCLC) of 0.553 µM. The TGI (HOP-62 NSCLC) was 19.6 µM, the GI50 (SK-MEL-2 melanoma) was 0.848 µM and the TGI (SK-MEL-2 melanoma) was 21.7 µM. The GI50 (ACHN renal) was 15.3 µM, the TGI (ACHN renal) was 29.9 µM and the GI50 (A549 NSCLC) was 0.643 µM. It also gave a TGI (A549 NSCLC) of 13.4 µM, a GI50 (HL-60(TB) leukemia) of 3.92 µM and a TGI (HL-60(TB) leukemia) of 34.5 µM. For the same compound, the GI50 (MOLT-4 leukemia) was 19.5 µM, the TGI (MOLT-4 leukemia) was 46 µM and the GI50 (SW-620 colon) was 0.355 µM. The TGI (SW-620 colon) was 18.3 µM, the GI50 (COLO 205 colon) was 1.02 µM and the TGI (COLO 205 colon) was 3.02 µM. The GI50 (NCI/ADR-RES ovarian) was 10.9 µM, the TGI (NCI/ADR-RES ovarian) was 27.9 µM and the GI50 (SK-MEL-5 melanoma) was 12.7 µM. The TGI (SK-MEL-5 melanoma) was 25.6 µM, the GI50 (SN12C renal) was 12.1 µM and the TGI (SN12C renal) was 25.7 µM. For the same compound, the GI50 (MDA-MB-435) was 17.3 µM, the TGI (MDA-MB-435) was 34.6 µM and the GI50 (SNB-75 CNS) was 13 µM. For the same compound, the TGI (SNB-75 CNS) was 26.6 µM, the GI50 (BT-549 breast) was 18.7 µM and the TGI (BT-549 breast) was 34.3 µM. The GI50 (UO-31 renal) was 3.14 µM, the TGI (UO-31 renal) was 25 µM and the GI50 (T-47D breast) was 0.0502 µM. It also gave a TGI (T-47D breast) of 0.216 µM, a GI50 (MDA-MB-231 breast) of 15.3 µM and a TGI (MDA-MB-231 breast) of 35.8 µM. The GI50 (K-562 leukemia) was 0.354 µM, the TGI (K-562 leukemia) was 17.9 µM and the GI50 (M14 melanoma) was 19.1 µM. It also gave a TGI (M14 melanoma) of 37.7 µM, a GI50 (TK-10 renal) of 0.0326 µM and a TGI (TK-10 renal) of 0.145 µM. For the same compound, the GI50 (OVCAR-3 ovarian) was 0.171 µM, the TGI (OVCAR-3 ovarian) was 0.565 µM and the GI50 (HCT-116 colon) was 0.0408 µM. It also gave a TGI (HCT-116 colon) of 12.4 µM, a GI50 (NCI-H522 lung) of 18 µM and a TGI (NCI-H522 lung) of 35.2 µM. The GI50 (PC-3 prostate) was 12.1 µM, the TGI (PC-3 prostate) was 26.1 µM and the GI50 (NCI-H226 lung) was 0.0727 µM. The TGI (NCI-H226 lung) was 0.215 µM, the GI50 (HOP-92 NSCLC) was 0.111 µM and the TGI (HOP-92 NSCLC) was 1.73 µM. For the same compound, the GI50 (UACC-62 melanoma) was 0.0748 µM, the TGI (UACC-62 melanoma) was 0.398 µM and the GI50 (IGROV1 ovarian) was 0.0424 µM. The TGI (IGROV1 ovarian) was 0.186 µM, the GI50 (SR leukemia) was 19.4 µM and the TGI (SR leukemia) was 46.6 µM. For the same compound, the GI50 (HT29 colon) was 2.62 µM, the TGI (HT29 colon) was 17.5 µM and the GI50 (NCI-H460 lung) was 0.134 µM. For the same compound, the TGI (NCI-H460 lung) was 2.63 µM, the GI50 (HCT-15 colon) was 11.7 µM and the TGI (HCT-15 colon) was 29.1 µM. For the same compound, the GI50 (SF-268 CNS) was 18.3 µM, the TGI (SF-268 CNS) was 34.9 µM and the GI50 (SNB-19 CNS) was 19.1 µM. It also gave a TGI (SNB-19 CNS) of over 52.3 µM, a GI50 (786-0 renal) of 13.7 µM and a TGI (786-0 renal) of 29.6 µM. The GI50 (CCRF-CEM leukemia) was 17.8 µM, the TGI (CCRF-CEM leukemia) was 40.2 µM and the GI50 (OVCAR-4 ovarian) was 0.119 µM. It also gave a TGI (OVCAR-4 ovarian) of 0.832 µM, a GI50 (MALME-3M melanoma) of 17.5 µM and a TGI (MALME-3M melanoma) of 33.6 µM.
